Patent publication US9593305B2, “Differentiation of pluripotent stem cells” (Janssen Biotech, Inc., priority 2008, dated 2017)

What was measured:
[1] = system: H1 human embryonic stem cells; assay: Dose ranging of compounds with activin A or GDF-8, SOX17 and cell number (Example 15); assay type: cell-based; details: for SOX17 expression in combination with GDF-8 / cell numbers at the end of assay in combination with GDF-8: 78 nM to 10 μM compound with 100 ng/ml GDF-8; for SOX17 expression with activin A treatment: 78 nM to 10 μM compound with 100 ng/ml activin A, one or three days of compound
Method: Stock cultures of human embryonic stem cells (H1 human embryonic stem cell line) were maintained in an undifferentiated, pluripotent state on reduced growth factor […]™ (BD Biosciences; Cat #356231)-coated dishes in MEF conditioned medium supplemented with 8 ng/ml bFGF (PeproTech Inc.; Cat #100-18B) with passage on average every four days. Passage was performed, by exposing cell cultures to a solution of 1 mg/ml dispase (Invitrogen; Cat #17105-041) for 5 to 7 minutes at 37° C. followed by rinsing the monolayer with MEF conditioned culture medium and gentle scraping to recover cell clusters. Clusters were centrifuged at low speed to collect a cell pellet and remove residual dispase. Cell clusters were split at a 1:3 or 1:4 ratio for routine maintenance culture or a 1:1 ratio for immediate assay. All human embryonic stem cell lines were maintained at passage numbers less than 50 and routinely evaluated for normal karyotype and absence of mycoplasma.
Cell clusters were evenly resuspended in MEF conditioned medium supplemented with 8 ng/ml bFGF and seeded onto reduced growth factor […]™-coated 96-well Packard VIEWPLATES (PerkinElmer; Cat #6005182) in volumes of 0.1 ml/well. Daily feeding was conducted by aspirating spent culture medium from each well and replacing with an equal volume of fresh medium. Plates were maintained at 37° C., 5% CO2 throughout the duration of assay.
Assay was initiated by aspirating the culture medium from each well and adding back aliquots (100 μl) of test medium. Test conditions were performed in quadruplicate over a total four-day assay period, feeding daily by aspirating and replacing the medium from each well with fresh test medium. […] Test compounds in this assay included six of the compounds of the present invention: Compound 181, Compound 180, Compound 19, Compound 202, Compound 40, and Compound 34, and a commercial GSK31 inhibitor BIO (EMD Chemicals, Inc.; Cat #361550). On the first day of assay, wells were treated with various control or experimental conditions. Control conditions, with final assay concentrations as indicated, were as follows: 1) growth medium alone; 2) 20 ng/ml Wnt3a only R&D Systems; Cat #1324-WN/CF); 3) 100 ng/ml activin A (PeproTech; Cat #120-14); 4) 100 ng/mlactivin A and 20 ng/ml Wnt3a; 5) 100 ng/ml GDF-8 (R&D Systems, Cat #788-G8); 6) 100 ng/ml GDF-8 and 20 ng/ml Wnt3a. Test compounds were diluted two-fold in series to yield a concentration range from 78 nM to 10 μM in the final assay. Experimental test samples combined each individual compound dilution series with 100 ng/ml activin A or 100 ng/ml GDF-8, both treatment sets in the absence of Wnt3a. On the second and third day of assay, some wells continued to be treated with 20 ng/ml Wnt3a or diluted test compound in combination with either activin A or GDF-8. In other wells, activin A or GDF-8 treatment continued on the second and third day of assay, but Wnt3a or diluted test compound was removed.
At the conclusion of culture, assay plates were washed once with PBS (Invitrogen; Cat #14190), fixed with 4% paraformaldehyde (Alexis Biochemical; Cat #ALX-350-011) at room temperature for 20 minutes, then washed three times with PBS and permeabilized with 0.5% Triton X-100 (Sigma; Cat #T8760-2) for 20 minutes at room temperature. Cells were washed again three times with PBS and blocked with 4% chicken serum (Invitrogen; Cat #16110082) in PBS for 30 minutes at room temperature. Primary antibody (goat anti-human SOX17; R&D Systems; Cat #AF1924) was diluted 1:100 in 4% chicken serum and added to each well for two hours at room temperature. After washing three times with PBS, Alexa Fluor 488 conjugated secondary antibody (chicken anti-goat IgG; Invitrogen; Cat #A21467) diluted 1:200 in PBS was added to each well. To counterstain nuclei, 5 μg/ml Hoechst 33342 (Invitrogen; Cat #H3570) was added for fifteen minutes at room temperature. Plates were washed once with PBS and left in 100 μl/well PBS for imaging. […]

[2] = system: H1 human embryonic stem cells; assay: Step-wise differentiation, FACS for CXCR4 after step 1 (Example 16); assay type: cell-based; details: 100 ng/ml GDF-8 with compound on first day, compared to activin A and Wnt3a
Method: The assay was initiated by aspirating the culture medium from each well and adding back an aliquot (0.5 ml) of test medium. Test conditions for the first step of differentiation were conducted over a three-day period, feeding daily by aspirating and replacing the medium from each well with fresh test medium. On the first day of assay, 100 ng/ml activin A (PeproTech; Cat #120-14) or 100 ng/ml GDF-8 (R&D Systems, Cat #788-G8) was added to respective assay wells where each growth factor was diluted into RPMI-1640 medium (Invitrogen; Cat #: 22400) with 2% Albumin Bovine Fraction V, Fatty Acid Free (FAF BSA) (Proliant Inc. Cat #: SKU 68700), and 20 ng/ml Wnt3a (R&D Systems; Cat #1324-WN/CF). On the second day of assay, 100 ng/ml activin A or 100 ng/ml GDF-8 was diluted into RPMI-1640 medium supplemented with 2% FAF BSA without Wnt3a. In some test samples using GDF-8, Wnt3a was replaced with a small molecule compound, added only on the first day of definitive endoderm differentiation. These small molecules included Compound 19 (2.5 μM in assay), Compound 202 (2.5 μM in assay), Compound 40 (2.5 μM in assay), or a commercially available GSK3 inhibitor BIO (0.5 μM in assay) (EMD Chemicals, Inc.; Cat #361550). At the conclusion of the first step of differentiation, cells from some wells were harvested for flow cytometry analysis to evaluate levels of CXCR4, a marker of definitive endoderm formation. Additional wells were harvested for RT-PCR analysis to measure other markers of differentiation.
Cells for FACS analysis were blocked in a 1:5 solution of 0.5% human gamma-globulin (Sigma; Cat#G-4386) in PBS (Invitrogen; Cat #14040-133): BD FACS staining buffer—BSA (BD; Cat #554657) for 15 minutes at 4° C. Cells were then stained with antibodies for CD9 PE (BD; Cat #555372), CD99 PE (Caltag; #MHCD9904) and CXCR4 APC(R&D Systems; Cat#FAB 173A) for 30 minutes at 4° C. After a series of washes in BD FACS staining buffer, the cells were stained for viability with 7-AAD (BD; Cat #559925) and run on a BD FACSArray. […]

| Molecule | SOX17 expression in combination with GDF-8 [1] | cell numbers at the end of assay in combination with GDF-8 [1] | SOX17 expression with activin A treatment [1] | percentage of CXCR4 positive cells after step 1 [2] | SOX17 expression, control treatments ([1]; 100 ng/ml activin A versus 100 ng/ml GDF-8, alone or with Wnt3a) |
| --- | --- | --- | --- | --- | --- |
| CN1CCC(=O)NCCCc2cncc(c2)-c2ncnc(n2)Nc2cccc(c2)C1 [Compound 19, 14-Methyl-3,5,7,14,18,24,28-heptaazatetracyclo[20.3.1.1˜2,6˜0.1˜8,12˜]octacosa-1(26), 2(28), 3,5,8(27), 9,11,22,24-nonaen-17-one] | significantly improved SOX17 expression | enhanced cell numbers | did not enhance SOX 17 expression | equivalent or slightly higher percentage of CXCR4 positive cells |  |
| O=C1CCN2CCN(CC2)Cc2cc(Cl)cc(c2)Nc2ncnc(n2)-c2cncc(c2)CCCN1 [Compound 34, 5-Chloro-1,8,10,12,16,22,26,32-octaazapentacyclo[24.2.2.1˜3.7˜0.1˜9,13˜0.1˜14.18˜]tritriaconta-3(33), 4,6,9(32), 10,12,14(31), 15,17-nonaen-23-one] | significantly improved SOX17 expression | enhanced cell numbers | did not enhance SOX 17 expression |  |  |
| C=CCN1CC(=O)NCCCc2cncc(c2)-c2ncnc(n2)Nc2cccc(c2)C1 [Compound 40, 14-Prop-2-en-1-yl-3,5,7,14,17,23,27-heptaazatetracyclo[19.3.1.1˜2.6˜0.1˜8,12˜]heptacosa-1(25), 2(27), 3,5,8(26), 9,11,21,23-nonaen-16-one] | significantly improved SOX17 expression | enhanced cell numbers | did not enhance SOX 17 expression | equivalent or slightly higher percentage of CXCR4 positive cells |  |
| Activin A: recombinant human activin A (PeproTech), TGF-beta family member |  |  |  |  | significantly higher SOX17 expression |
